Among the data in US12365655B2, “Compounds” (CTXT PTY LTD, priority 2018, dated 2025) are IC50 values, retold here.

Assay [1] deals with acetylation of the histone H3 Lysine 14 marker in U2OS cells. The assay can be described thus: Histone H3 Lysine 14 Acetylation Biomarker Assay. The note with it: Homo sapiens, serum free medium, 24 hours incubation, read-out: IC50, inhibition of histone H3 Lysine 14 acetylation. It is filed as cell-based. On the procedure: Compounds were tested for their ability to inhibit acetylation of the histone H3 Lysine 14 marker in the following assay:
The cell line U2OS was seeded at a density of 3,000 cells per well in 384-well optical quality tissue culture plates in RPMI medium supplemented with 10% foetal bovine serum and 10 mM Hepes. The cells were allowed to adhere for 24 hours under standard culture conditions (37 degree Celsius, 5% CO2). At the end of this period the cells were washed with serum free medium. […] After incubation for 24 hours, the cells were fixed with 4% formaldehyde in PBS for 15 minutes at room temperature, washed with phosphate buffer saline and blocked with blocking buffer containing 0.2% TritonX100 and 2% BSA. Anti-H3K14ac specific antibody (Cell Signalling Technologies) in blocking buffer was added and incubated overnight at 4 degree Celsius. After washing, a secondary antibody labelled with AlexaFluor 488 dye (ThermoFisher) and Hoechst 33342 (1 μg/mL, Life Technologies) were added for 2 hours incubation at room temperature. Plates were washed and read on a PerkinElmer Opera HCS high content imaging platform. Using a Columbus image analysis pipeline, individual nuclei were located by Hoechst 33342 stain and the acetylation level was calculated from the AlexaFluor 488-related intensity in the same area.

A further assay addresses TIP60-KAT5 (Homo sapiens, UniProt Q92993). The assay can be described thus: Acetyltransferase biochemical assay (AlphaScreen), KAT5. (Bead proximity is the source of the signal in Alpha formats.)
The test system of assay [2] is acetylation of the histone H3K23 marker in U2OS cells. The assay can be described thus: Histone H3 Lysine 23 Acetylation Biomarker Assay. Format: cell-based. The note with it: Homo sapiens, 24 hours incubation, read-out: IC50, inhibition of histone H3K23 acetylation. As for the experimental part: Compounds were tested for their ability to inhibit acetylation of the histone H3K23 marker in the following assay:
The cell line U2OS was seeded at a density of 9,000 cells per well in 96 well optical quality tissue culture plates in RPMI medium and 10% foetal bovine serum, and allowed to adhere for 24 hours under standard culture conditions (37 degree Celsius, 5% CO2). At the end of this period the medium was aspirated. […] After incubation for 24 hours, the cells were fixed with 3.7% formaldehyde in PBS for 20 minutes at room temperature, washed (5×5 minutes) with phosphate buffer saline containing 0.1% Tween 20 and blocked with Odyssey blocking buffer (LI-COR, Lincoln, Nebr.) containing 0.1% TritonX100. Anti-H3K23ac specific antibody (Abcam ab177275) in Odyssey blocking buffer containing 0.1% Tween 20 was added and incubated for 16 hours at 4 degree Celsius. After washing (as above), a secondary antibody labelled with Alexa647 dye (LifeTechnologies) and Hoechst 33342 (1 μg/mL, SigmaAldrich) were added for 1 hour incubation. Plates were washed as previously and read on a PerkinElmer Phenix high content imaging platform. Using a Columbus image analysis pipeline, individual nuclei were located by Hoechst 33342 stain and the acetylation level was calculated from the Alexa647-related intensity in the same area.

In assay [3] the test system is histone H2A.Z Lysine 7 acetylation marker in U2OS cells. The assay can be described thus: H2A.Z Lysine 7 Acetylation Biomarker Assay. It is filed as cell-based. The following applies: Homo sapiens, serum free medium, 24 hours incubation, read-out: IC50, inhibition of histone H2A.Z Lysine 7 acetylation. As for the experimental part:
Compounds were tested for their ability to inhibit the histone H2A.Z Lysine 7 acetylation marker in the following assay:
The cell line U2OS was seeded at a density of 3,000 cells per well in 384-well optical quality tissue culture plates in RPMI medium supplemented with 10% foetal bovine serum and 10 mM Hepes. The cells were allowed to adhere for 24 hours under standard culture conditions (37 degree Celsius, 5% CO2). At the end of this period the cells were washed with serum free medium. […] 2018, at 30 μM concentration. After incubation for 24 hours, the cells were fixed with 4% formaldehyde in PBS for 15 minutes at room temperature, washed with phosphate buffer saline and blocked with blocking buffer containing 0.2% TritonX100 and 2% BSA. Anti-H2A.ZK7ac specific antibody (Abcam) in blocking buffer was added and incubated overnight at 4 degree Celsius. After washing, a secondary antibody labelled with AlexaFluor 488 dye (ThermoFisher) and Hoechst 33342 (1 μg/mL, Life Technologies) were added for 2 hours incubation at room temperature. Plates were washed and read on a PerkinElmer Opera HCS high content imaging platform. Using a Columbus image analysis pipeline, individual nuclei were located by Hoechst 33342 stain and the acetylation level was calculated from the AlexaFluor 488-related intensity in the same area.

Another assay addresses MOZ-KAT6A (Homo sapiens, UniProt Q92794, A567V). The experiment in a line: Acetyltransferase biochemical assay (AlphaScreen), KAT6A.
The target in a further assay is HBO-KAT7 (Homo sapiens, UniProt O95251). The experiment in a line: Acetyltransferase biochemical assay (AlphaScreen), KAT7.
Another assay concerns the target T1, QKF-KAT6B (Homo sapiens, UniProt Q8WYB5).
T1 construct: purchased SignalChem K315-381BG
The assay can be described thus: Acetyltransferase biochemical assay (AlphaScreen), KAT6B. The following applies: 8 nM KAT6B, 1 μM AcCoA, 100 nM histone H3.1. An excerpt:
KAT6B was obtained from SignalChem, catalog ID: K315-381BG

For another assay, the target named is T2, MOF-KAT8 (Homo sapiens, UniProt Q9H7Z6).
T2 sequence (Q9H7Z6 with tags, fused parts or gaps): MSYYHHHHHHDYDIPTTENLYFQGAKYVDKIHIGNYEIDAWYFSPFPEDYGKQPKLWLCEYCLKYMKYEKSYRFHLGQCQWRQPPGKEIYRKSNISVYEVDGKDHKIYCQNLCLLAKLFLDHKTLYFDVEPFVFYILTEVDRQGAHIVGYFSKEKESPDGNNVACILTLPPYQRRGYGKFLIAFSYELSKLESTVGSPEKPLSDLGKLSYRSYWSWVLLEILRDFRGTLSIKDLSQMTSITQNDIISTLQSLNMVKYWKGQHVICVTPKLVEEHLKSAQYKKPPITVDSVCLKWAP
The experiment in a line: biochemical.

Structures are written as SMILES.

Sequence of HBO-KAT7 (O95251 with tags, fused parts or gaps): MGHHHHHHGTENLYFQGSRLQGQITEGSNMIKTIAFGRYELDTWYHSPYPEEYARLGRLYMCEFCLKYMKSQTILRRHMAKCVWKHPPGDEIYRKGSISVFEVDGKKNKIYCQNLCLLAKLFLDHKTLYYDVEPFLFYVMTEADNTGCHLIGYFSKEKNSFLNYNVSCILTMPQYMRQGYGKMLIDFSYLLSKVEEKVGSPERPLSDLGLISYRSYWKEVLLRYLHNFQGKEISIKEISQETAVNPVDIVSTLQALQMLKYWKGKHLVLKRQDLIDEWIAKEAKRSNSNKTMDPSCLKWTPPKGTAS
T1 sequence (Q8WYB5 whole entry): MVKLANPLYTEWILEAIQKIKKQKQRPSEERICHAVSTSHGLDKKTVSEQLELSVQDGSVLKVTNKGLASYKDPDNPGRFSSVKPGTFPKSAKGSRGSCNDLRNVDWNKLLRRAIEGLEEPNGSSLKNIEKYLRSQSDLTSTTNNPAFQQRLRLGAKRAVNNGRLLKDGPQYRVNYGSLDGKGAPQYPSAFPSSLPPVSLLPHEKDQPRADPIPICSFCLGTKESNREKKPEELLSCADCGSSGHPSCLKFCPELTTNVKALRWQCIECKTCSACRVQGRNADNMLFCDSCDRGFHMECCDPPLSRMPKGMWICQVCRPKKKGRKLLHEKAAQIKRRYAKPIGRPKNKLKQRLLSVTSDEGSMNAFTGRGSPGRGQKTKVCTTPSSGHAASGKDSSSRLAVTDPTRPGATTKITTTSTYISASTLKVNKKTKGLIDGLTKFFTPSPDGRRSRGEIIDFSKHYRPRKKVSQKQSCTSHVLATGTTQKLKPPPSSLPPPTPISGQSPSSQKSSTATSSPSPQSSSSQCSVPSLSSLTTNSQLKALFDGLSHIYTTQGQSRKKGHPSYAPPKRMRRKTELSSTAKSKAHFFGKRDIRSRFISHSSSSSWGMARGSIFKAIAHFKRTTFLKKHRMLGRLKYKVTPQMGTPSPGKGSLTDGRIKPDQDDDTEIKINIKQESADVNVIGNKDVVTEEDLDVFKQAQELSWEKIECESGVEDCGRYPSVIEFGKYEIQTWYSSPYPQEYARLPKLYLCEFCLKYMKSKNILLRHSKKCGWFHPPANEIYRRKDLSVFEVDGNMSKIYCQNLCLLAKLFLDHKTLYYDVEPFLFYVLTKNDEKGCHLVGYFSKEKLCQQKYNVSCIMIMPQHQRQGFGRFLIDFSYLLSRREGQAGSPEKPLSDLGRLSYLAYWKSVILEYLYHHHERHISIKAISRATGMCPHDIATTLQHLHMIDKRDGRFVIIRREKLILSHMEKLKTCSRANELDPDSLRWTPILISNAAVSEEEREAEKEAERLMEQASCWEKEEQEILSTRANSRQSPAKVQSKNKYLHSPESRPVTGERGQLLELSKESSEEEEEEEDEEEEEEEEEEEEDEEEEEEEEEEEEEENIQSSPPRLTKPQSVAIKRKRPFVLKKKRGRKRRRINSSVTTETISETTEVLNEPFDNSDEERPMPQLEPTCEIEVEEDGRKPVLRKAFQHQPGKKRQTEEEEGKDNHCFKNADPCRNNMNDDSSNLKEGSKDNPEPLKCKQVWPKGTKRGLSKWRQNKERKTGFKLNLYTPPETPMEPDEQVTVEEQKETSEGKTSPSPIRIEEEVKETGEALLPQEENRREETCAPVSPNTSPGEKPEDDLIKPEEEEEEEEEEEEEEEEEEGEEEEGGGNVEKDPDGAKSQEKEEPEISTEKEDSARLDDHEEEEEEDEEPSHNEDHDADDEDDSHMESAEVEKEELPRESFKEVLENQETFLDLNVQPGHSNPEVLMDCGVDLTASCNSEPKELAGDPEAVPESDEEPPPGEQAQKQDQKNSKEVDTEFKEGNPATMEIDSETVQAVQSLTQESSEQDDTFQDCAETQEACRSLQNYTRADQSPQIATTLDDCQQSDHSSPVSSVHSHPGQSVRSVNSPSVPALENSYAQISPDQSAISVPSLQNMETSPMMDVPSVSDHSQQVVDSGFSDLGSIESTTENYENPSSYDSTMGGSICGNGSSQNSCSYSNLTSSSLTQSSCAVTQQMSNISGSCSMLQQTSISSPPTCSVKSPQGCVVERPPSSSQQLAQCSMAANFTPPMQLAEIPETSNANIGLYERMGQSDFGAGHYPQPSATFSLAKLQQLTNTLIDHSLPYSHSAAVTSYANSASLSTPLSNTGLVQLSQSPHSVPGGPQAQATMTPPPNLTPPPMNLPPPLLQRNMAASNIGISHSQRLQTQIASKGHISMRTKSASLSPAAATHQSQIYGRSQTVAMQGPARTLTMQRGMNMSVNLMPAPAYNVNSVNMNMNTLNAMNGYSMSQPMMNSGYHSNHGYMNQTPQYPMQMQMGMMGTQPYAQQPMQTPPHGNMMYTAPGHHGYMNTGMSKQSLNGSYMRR
Sequence of MOZ-KAT6A (Q92794 with tags, fused parts or gaps A567V): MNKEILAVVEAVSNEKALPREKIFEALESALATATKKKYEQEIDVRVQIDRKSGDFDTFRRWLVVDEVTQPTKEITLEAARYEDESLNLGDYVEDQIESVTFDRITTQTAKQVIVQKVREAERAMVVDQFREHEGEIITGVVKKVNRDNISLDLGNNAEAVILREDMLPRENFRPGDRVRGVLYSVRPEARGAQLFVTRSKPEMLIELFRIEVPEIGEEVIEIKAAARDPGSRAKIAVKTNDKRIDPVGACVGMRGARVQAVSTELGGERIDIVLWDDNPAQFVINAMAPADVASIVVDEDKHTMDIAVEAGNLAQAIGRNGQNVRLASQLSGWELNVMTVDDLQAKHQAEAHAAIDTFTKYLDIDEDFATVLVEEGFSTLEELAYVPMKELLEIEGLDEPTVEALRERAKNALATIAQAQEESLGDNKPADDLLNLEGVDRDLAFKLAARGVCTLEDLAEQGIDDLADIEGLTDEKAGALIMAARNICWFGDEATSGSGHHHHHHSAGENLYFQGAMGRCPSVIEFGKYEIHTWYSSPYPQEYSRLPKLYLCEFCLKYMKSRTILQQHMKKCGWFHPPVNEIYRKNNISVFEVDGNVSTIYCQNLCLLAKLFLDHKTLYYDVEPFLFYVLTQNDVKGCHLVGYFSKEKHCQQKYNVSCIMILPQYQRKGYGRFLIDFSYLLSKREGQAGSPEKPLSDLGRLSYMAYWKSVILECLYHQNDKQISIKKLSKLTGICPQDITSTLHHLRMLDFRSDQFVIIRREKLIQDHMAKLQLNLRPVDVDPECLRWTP
Sequence of TIP60-KAT5 (Q92993 with tags, fused parts or gaps isoform Q92993-2): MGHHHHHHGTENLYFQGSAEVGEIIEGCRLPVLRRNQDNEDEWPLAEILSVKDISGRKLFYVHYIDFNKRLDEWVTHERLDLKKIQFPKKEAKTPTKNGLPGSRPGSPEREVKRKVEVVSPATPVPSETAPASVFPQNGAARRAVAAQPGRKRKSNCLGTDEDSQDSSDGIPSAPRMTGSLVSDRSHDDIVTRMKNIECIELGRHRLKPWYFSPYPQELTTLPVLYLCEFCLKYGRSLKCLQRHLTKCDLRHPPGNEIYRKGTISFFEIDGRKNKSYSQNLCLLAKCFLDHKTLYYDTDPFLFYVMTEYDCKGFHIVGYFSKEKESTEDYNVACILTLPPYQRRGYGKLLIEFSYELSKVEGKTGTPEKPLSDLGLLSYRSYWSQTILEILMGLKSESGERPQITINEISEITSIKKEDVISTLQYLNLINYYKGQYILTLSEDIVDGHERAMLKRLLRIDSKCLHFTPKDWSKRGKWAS

With `COc1cccc(OC)c1S(=O)(=O)Nc1noc2cc(-c3cccc(O)c3)cc(OC)c12` [Example 92], the IC50 came to 703 nM in assay [1]; 1390 nM at TIP60-KAT5; 13 nM in assay [2]; 4620 nM in assay [3]; 6 nM on MOZ-KAT6A; 60 nM against HBO-KAT7. On QKF-KAT6B, 53 nM corresponded to half-maximal inhibition (IC50).
Turning to `COCc1cc2onc(NS(=O)(=O)c3c(OC)cccc3OC)c2c(OC)c1Cl` [Example 145], the IC50 in assay [1] is 3380 nM; at TIP60-KAT5, 21000 nM; in assay [2], 98 nM; in assay [3], more than 40000 nM; against MOZ-KAT6A it was 127 nM; at HBO-KAT7, 259 nM.
With `COc1cccc(OC)c1S(=O)(=O)Nc1noc2cc(-c3ccccc3)cc(OC)c12` [Example 174, 2,6-Dimethoxy-N-(4-methoxy-6-phenylbenzo[d]isoxazol-3-yl)benzenesulfonamide], the IC50 in assay [1] stood at 68 nM; on TIP60-KAT5, 1830 nM; in assay [2], 17 nM; in assay [3] it was 1540 nM; on MOZ-KAT6A, 13 nM; on HBO-KAT7, 31 nM. The same compound returned an IC50 at QKF-KAT6B of 18 nM.
On to `CCOCc1cc(OC)c2c(NS(=O)(=O)c3c(OC)cccc3OC)noc2c1` [Example 172], for which the IC50 in assay [1] came out at 1450 nM; against TIP60-KAT5, 9070 nM; in assay [2], 14 nM; in assay [3] it was 29200 nM; on MOZ-KAT6A, 37 nM; at HBO-KAT7, 426 nM. At QKF-KAT6B, this compound had an IC50 of 42 nM.
On to `COCc1cc(OC)c2c(NS(=O)(=O)c3c(OC)cc(-c4ccccc4)cc3OC)noc2c1` [Example 91, 3,5-Dimethoxy-N-(4-methoxy-6-(methoxymethyl)benzo [d]isoxazol-3-yl)-[1,1-biphenyl]-4-sulfonamide], for which the IC50 in assay [1] is 874 nM; on TIP60-KAT5 it was 2180 nM; in assay [2] it was 182 nM; in assay [3], 8020 nM; at MOZ-KAT6A, 9 nM; against HBO-KAT7 it was 79 nM. Besides, on QKF-KAT6B, the IC50 amounted to 37 nM.
Turning to `COc1ccccc1-c1cc(OC)c2c(NS(=O)(=O)c3c(OC)cccc3OC)noc2c1` [Example 176, 2,6-Dimethoxy-N-(4-methoxy-6-(2-methoxyphenyl)benzo[d]isoxazol-3-yl)benzenesulfonamide], the IC50 in assay [1] was 1070 nM; against TIP60-KAT5 it was 5670 nM; in assay [2] it was 685 nM; in assay [3], 7610 nM; against MOZ-KAT6A it was 30 nM; against HBO-KAT7, 138 nM. Further, half-maximal inhibition on QKF-KAT6B (IC50) was put at 121 nM.
As for `COc1cccc(OC)c1S(=O)(=O)Nc1noc2cc(-c3ccccn3)cc(OC)c12` [Example 146, 2,6-Dimethoxy-N-(4-methoxy-6-(pyridin-2-yl)benzo[d]isoxazol-3-yl)benzenesulfonamide], the IC50 in assay [1] came to 2300 nM; on TIP60-KAT5, 22000 nM; in assay [2], 45 nM; in assay [3], 15100 nM; at MOZ-KAT6A it was 153 nM; against HBO-KAT7 it was 511 nM. Half-maximal inhibition against QKF-KAT6B (IC50) required 291 nM.
Take `COc1cccc(-c2cc(OC)c3c(NS(=O)(=O)c4c(OC)cccc4OC)noc3c2)c1` [Example 177, 2,6-Dimethoxy-N-(4-methoxy-6-(3-methoxyphenyl)benzo[d]isoxazol-3-yl)benzenesulfonamide]: the IC50 amounted to 135 nM in assay [1]; 7080 nM on TIP60-KAT5; 1490 nM in assay [2]; 1090 nM in assay [3]; 127 nM against MOZ-KAT6A; 21 nM at HBO-KAT7. In addition, inhibition against QKF-KAT6B was half-maximal at 92 nM (IC50).
Turning to `COc1cccc(OC)c1S(=O)(=O)Nc1noc2c(-c3cnn(C)c3)ccc(OC)c12` [Example 143, 2,6-Dimethoxy-N-(4-methoxy-7-(1-methyl-1H-pyrazol-4-yl)benzo[d]isoxazol-3-yl)benzenesulfonamide], the concentration for half-maximal inhibition (IC50) against TIP60-KAT5 was more than 125000 nM; against MOZ-KAT6A, 32400 nM; on HBO-KAT7, 7880 nM; at QKF-KAT6B, 50700 nM.
In the same order, the values of `COCc1cc(OC)c2c(NS(=O)(=O)c3c(OC)ccc(Cl)c3OC)noc2c1` [Example 175, 3-Chloro-2,6-dimethoxy-N-(4-methoxy-6-(methoxymethyl)benzo[d]isoxazol-3-yl)benzenesulfonamide] are 43200 nM, 441 nM, 5950 nM and 821 nM.
Regarding `COc1ccccc1S(=O)(=O)Nc1noc2cccc(Cl)c12` [Example 155], the IC50 was 26100 nM in assay [1]; 672 nM against TIP60-KAT5; more than 10000 nM in assay [2]; more than 40000 nM in assay [3]; 2120 nM at MOZ-KAT6A; 248 nM on HBO-KAT7.
With `CCc1ccc(OC)c(S(=O)(=O)Nc2noc3cccc(OC)c23)c1` [Example 116, 5-Ethyl-2-methoxy-N-(4-methoxybenzo[d]isoxazol-3-yl)benzenesulfonamide], the IC50 on TIP60-KAT5 was 10500 nM; in assay [2], 3460 nM; on MOZ-KAT6A, 560 nM; at HBO-KAT7 it was 1440 nM; against QKF-KAT6B it was 1620 nM.
For the compound `COc1ccc(-c2ccccc2)c(OC)c1S(=O)(=O)Nc1noc2cccc(OC)c12` [Example 96, 2,4-Dimethoxy-N-(4-methoxybenzo[d]isoxazol-3-yl)-[1,1-biphenyl]-3-sulfonamide], the IC50 on TIP60-KAT5 is 28600 nM; in assay [2], more than 10000 nM; against MOF-KAT8 it was 53800 nM; on MOZ-KAT6A, 1200 nM; against HBO-KAT7, 4270 nM; against QKF-KAT6B, 3390 nM.
As for `CCc1ccc(OC)c(S(=O)(=O)Nc2noc3ccc(C4CC4)c(Cl)c23)c1` [Example 207], the IC50 came out at 4610 nM against TIP60-KAT5, 104 nM against MOZ-KAT6A, 257 nM at HBO-KAT7 and 1450 nM against QKF-KAT6B.
On to `COc1cccc(OC)c1S(=O)(=O)Nc1noc2cc(-c3ncco3)c(C)cc12` [Example 102, 2,6-Dimethoxy-N-(5-methyl-6-(oxazol-2-yl)benzo[d]isoxazol-3-yl)benzenesulfonamide], for which the IC50 is 3690 nM in assay [1]; 9330 nM against TIP60-KAT5; 11500 nM on MOF-KAT8; more than 40000 nM in assay [3]; 143 nM at MOZ-KAT6A; 568 nM on HBO-KAT7. At QKF-KAT6B, this compound came in with an IC50 of 282 nM.

As usually defined, the IC50 is the concentration needed to halve the response being measured.
